Laboratory results taken from patent US20240246935A1 (Plexium, Inc., priority 2021, published 2024).

Assays:
[1] = tested on: IKZF2 (Helios); assay: IKZF2 reporter degradation assay (HEK 293T IKZF2-mNeonGreen reporter cell line); format: cell-based, human; settings: 1 μM compound, 24 hour incubation, HEK 293T IKZF2-mNeonGreen reporter
Text: Polycistronic plasmids were constructed for the mammalian expression of fluorescent reporter fusions of human transcription factors IKZF1 (Ikaros), IKZF2 (Helios), and IKZF3 (Aiolos). The respective protein sequences had their C-terminal end joined to a GGGGS linker repeated three times followed by mNeonGreen, P2A sequence, and mScarlet. The DNA sequences of the open reading frames are as follows:
IKZF1, IKZF2, and IKZF3 constructs were cloned into the UCOE Hygromycin expression vectors (Millipore Sigma). Reporter constructs were transfected using cationic lipid reagents into adherent HEK 293T cells and stable integrants were selected by treatment with 200 μg/mL hygromycin B. Clonal populations were obtained from the population of stable integrants either by limiting dilution or fluorescence activated cell sorting.
The clonal stable cell lines were maintained under constant 200 μg/mL hygromycin B selection while being passaged for use in the degradation assays. […] The fluorescence intensity of the IKZF1/2/3-mNeonGreen (FITC channel) and mScarlet (PE channel) reporters were routinely analyzed by flow cytometry to confirm consistent expression levels between experiments.
The IKZF1/IKZF2/IKZF3 degradation assays were carried out by harvesting the HEK 293T reporter cell lines and resuspending the cells in media formulated for reduced background fluorescence (FluoroBrite; Thermo Fisher). The respective cell lines were seeded at a density of 4000 cells/well into black-walled 384-well optical grade assay tissue culture plates. The cells were incubated overnight at 37° C. to allow for attachment to the assay plate. Dilutions of the compounds were prepared in DMSO from 10 mM compound stocks. The assay plates were treated with appropriate concentrations of the compounds by dispensing the DMSO dilutions in quadruplicate wells with an upper limit of 0.5% final DMSO.
After 24 hour incubation with the compounds, the assay plates were imaged on an ImageXpress Pico microscopy system (cells maintained at 37° C. during imaging) to obtain the fluorescent readouts. The assay plates were imaged in the FITC and Tetramethylrhodamine (TRITC) channels to obtain the mNeonGreen fluorescence intensity (reporter degradation data) and mScarlet fluorescence intensity (for cell segmentation). 293T-IKZF1 and 293T-IKZF3 reporter cell lines were imaged with exposures of 500 milliseconds (ms) for both FITC and TRITC channels, while the 293T-IKZF2 reporter cell line was imaged with exposures of 1000 ms for FITC and 1250 ms for TRITC. The resulting data was analyzed with Cell Reporter Xpress software using the 2-channel cell scoring analysis with a “percent positive” readout. The TRITC channel was selected for the “nuclei” segmentation with a threshold of 20 while the FITC channel was selected for the “Marker 1” segmentation and a threshold of 100 for the IKZF1 and IKZF3 reporter lines. […] The minimum segmentation width was set to 6 micrometers and the maximum segmentation width was set to 15 micrometers for all cell lines. The DCs calculations were determined by regression to best fit four-parameter logistic curves using GraphPad Prism.

[2] = biological target: human E3 ligase component cereblon (CRBN) (Homo sapiens (Human), UniProt Q96SW2); assay: Cereblon (CRBN) target engagement, NanoBRET TE Intracellular E3 Ligase Assay in transfected HEK-293T cells; settings: read-out: CRBN Binding EC50
Chain of human E3 ligase component cereblon (CRBN) (Q96SW2 whole entry): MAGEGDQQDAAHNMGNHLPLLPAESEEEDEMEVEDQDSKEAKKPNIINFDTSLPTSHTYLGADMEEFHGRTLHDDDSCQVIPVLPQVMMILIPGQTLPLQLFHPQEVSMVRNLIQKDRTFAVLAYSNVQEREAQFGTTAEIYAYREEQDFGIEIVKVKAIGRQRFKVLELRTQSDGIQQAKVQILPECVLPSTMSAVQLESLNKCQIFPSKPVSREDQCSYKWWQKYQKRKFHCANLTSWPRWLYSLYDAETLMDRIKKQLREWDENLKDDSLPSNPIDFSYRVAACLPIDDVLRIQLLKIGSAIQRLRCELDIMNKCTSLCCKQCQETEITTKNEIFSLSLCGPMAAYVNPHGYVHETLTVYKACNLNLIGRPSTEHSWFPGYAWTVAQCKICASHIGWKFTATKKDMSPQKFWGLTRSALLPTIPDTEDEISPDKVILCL
Chain of human E3 ligase component cereblon (CRBN) (Q16531 whole entry partner): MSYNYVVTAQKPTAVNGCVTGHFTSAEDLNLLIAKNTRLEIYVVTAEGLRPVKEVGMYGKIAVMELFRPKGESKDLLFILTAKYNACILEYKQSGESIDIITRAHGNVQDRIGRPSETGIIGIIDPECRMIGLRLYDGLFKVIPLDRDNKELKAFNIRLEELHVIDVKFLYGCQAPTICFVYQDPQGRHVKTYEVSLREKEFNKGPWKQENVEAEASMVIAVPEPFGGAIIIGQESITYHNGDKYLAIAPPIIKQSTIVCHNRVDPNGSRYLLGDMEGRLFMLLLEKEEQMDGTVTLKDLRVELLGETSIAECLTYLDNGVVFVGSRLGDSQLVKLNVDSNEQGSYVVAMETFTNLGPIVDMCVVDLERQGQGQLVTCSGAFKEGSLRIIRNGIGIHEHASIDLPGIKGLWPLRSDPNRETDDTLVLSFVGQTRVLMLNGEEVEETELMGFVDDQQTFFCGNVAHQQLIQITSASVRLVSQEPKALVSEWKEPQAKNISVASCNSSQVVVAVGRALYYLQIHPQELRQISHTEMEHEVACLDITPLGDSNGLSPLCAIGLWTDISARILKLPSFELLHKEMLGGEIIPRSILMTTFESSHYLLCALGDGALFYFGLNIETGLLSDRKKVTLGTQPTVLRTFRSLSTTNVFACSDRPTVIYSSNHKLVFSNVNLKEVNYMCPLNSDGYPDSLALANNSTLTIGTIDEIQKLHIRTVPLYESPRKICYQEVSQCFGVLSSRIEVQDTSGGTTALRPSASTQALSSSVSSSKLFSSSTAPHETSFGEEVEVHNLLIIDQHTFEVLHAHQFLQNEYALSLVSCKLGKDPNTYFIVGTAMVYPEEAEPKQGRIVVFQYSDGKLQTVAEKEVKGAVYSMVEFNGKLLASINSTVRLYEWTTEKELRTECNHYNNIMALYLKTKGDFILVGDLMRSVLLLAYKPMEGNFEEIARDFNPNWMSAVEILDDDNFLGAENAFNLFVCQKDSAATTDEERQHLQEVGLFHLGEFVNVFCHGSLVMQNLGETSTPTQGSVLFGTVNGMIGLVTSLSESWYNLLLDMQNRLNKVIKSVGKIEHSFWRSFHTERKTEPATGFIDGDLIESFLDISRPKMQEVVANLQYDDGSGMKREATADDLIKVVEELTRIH
Description: HEK293T cells were harvested ca. 75% confluent with trypsin and plated (500,000 cells/well) in a 6-well tissue culture plate in 2 mL of Dulbecco's Modified Eagle Medium (DMEM)+10% Fetal Bovine Serum (FBS) and incubated overnight at 37° C.
The NanoLuc-CRBN fusion vector (Nluc-CRBN; Promega) contains the coding region of human E3 ligase component cereblon (CRBN) fused to the C-terminus of the NanoLuc luciferase coding region. A mixture of 10 ng Nluc-CRBN and 990 ng DDB1 Expression Vector (Promega) was added to 125 μL Opti-Minimum Essential Medium (Opti-MEM™; Thermo Fisher) along with 2 μL P3000 reagent (Thermo Fisher) in a 1.5 mL epppendorf tube. This solution was added to Lipofectamine 3000 transfection reagent (5 μL; Thermo Fisher) in Opti-MEM (125 μL), mixed well, and incubated for 15 minutes at room temperature. The transfection mixture was added dropwise to cells and incubated overnight at 37° ° C., 5% CO2. Following transfection, cells were washed once with PBS, and trypsin (250 μL) was added and incubated 30-45 sec to dislodge cells. Complete media (2 mL) was added to resuspend cells to form a single cell suspension. Cells were centrifuged at 320×g for 5 min at room temperature, the supernatant was removed, and the cell pellet resuspended in Opti-MEM (3 mL; wash step repeated×2). After final resuspension in 5 mL Opti-MEM, cells were counted and resuspended at 200,000 cells/mL in Opti-MEM.
Cereblon target engagement was monitored by Bioluminescence Resonance Energy Transfer (BRET) in transfected HEK-293T cells using the NanoBRET TE Intracellular E3 Ligase Assay (Promega). Briefly, 384-well plates (white opaque plates, Corning 3574, low binding surface) were seeded with transfected HEK-293T cells (38 μL/well). 2 μL of 10 μM CRBN tracer (diluted 1:5 in Tracer Dilution Buffer) was added to each well. Plates were centrifuged at 320×g for 1 min at room temperature. Test compounds were added in a 11-point dilution series (typically 10 μM to […]) using a TECAN D300e Digital Dispenser. Plates were shaken for 2 minutes on a microplate shaker to mix compounds. Plates were centrifuged at 320×g for 1 min at room temperature, and subsequently incubated for 2 hours at 37° C.
After incubation, plates were allowed to cool to room temperature for 15 minutes. 20 μL of 3× Complete NanoBRET™ Nano-Glo® Substrate plus Inhibitor Solution (Promega, 1:166 Substrate and 1:500 dilution of Extracellular NanoLuc® Inhibitor diluted in Opti-MEM) were added to each well. Plates were incubated with shaking at room temperature for 3 minutes covered with foil. Plates were read on a CLARIOstar microplate reader (BMG LabTech), measuring at 450 nm (donor emission) and 610 nm (acceptor emission). The IC50 values were determined by regression to best fit four-parameter logistic curves using GraphPad Prism.

O=C1CCC(N2Cc3cc(O[C@H]4CCCC[C@@H]4N4CC(c5ccc(OC(F)(F)F)cc5)C4)ccc3C2=O)C(=O)N1 (mixture of isomers) [Compound 60, Rac-3-(1-oxo-5-(((trans)-2-(3-(4-(trifluoromethoxy)phenyl)azetidin-1-yl)cyclohexyl)oxy)isoindolin-2-yl)piperidine-2,6-dione]
IKZF2 % Degradation @ 1 μM [1]: 84.9%
EC50 [2]: 15 nM

O=C1CCC(N2Cc3cc(O[C@@H]4CCCC[C@@H]4N4CC(c5ccc(OC(F)(F)F)cc5)C4)ccc3C2=O)C(=O)N1 (mixture of isomers) [Compound 61, Rac-3-(1-oxo-5-(((cis)-2-(3-(4-(trifluoromethoxy)phenyl)azetidin-1-yl)cyclohexyl)oxy)isoindolin-2-yl)piperidine-2,6-dione]
IKZF2 % Degradation @ 1 μM [1]: 36.3%
EC50 [2]: 14 nM

O=C1CCC(N2Cc3cc(O[C@H]4CCCC[C@@H]4N4CC(c5cccc(C(F)(F)F)c5)C4)ccc3C2=O)C(=O)N1 (mixture of isomers) [Compound 62, Rac-3-(1-oxo-5-(((trans)-2-(3-(3-(trifluoromethyl)phenyl)azetidin-1-yl)cyclohexyl)oxy)isoindolin-2-yl)piperidine-2,6-dione]
IKZF2 % Degradation @ 1 μM [1]: 87.5%
EC50 [2]: 46 nM

O=C1CCC(N2Cc3cc(O[C@H]4CCCC[C@H]4N4CC(c5cccc(C(F)(F)F)c5)C4)ccc3C2=O)C(=O)N1 (mixture of isomers) [Compound 63, Rac-3-(1-oxo-5-(((cis)-2-(3-(3-(trifluoromethyl)phenyl)azetidin-1-yl)cyclohexyl)oxy)isoindolin-2-yl)piperidine-2,6-dione]
IKZF2 % Degradation @ 1 μM [1]: 44.9%
EC50 [2]: 15 nM

N#Cc1cc(F)ccc1C1CN([C@@H]2CCC[C@H]2Oc2ccc3c(c2)CN(C24CC(C2)C(=O)NC4=O)C3=O)C1 (racemic) [Compound 71, Rac-2-(1-((trans)-2-((2-(2,4-dioxo-3-azabicyclo[3.1.1]heptan-1-yl)-1-oxoisoindolin-5-yl)oxy)cyclopentyl)azetidin-3-yl)-5-fluorobenzonitrile]
IKZF2 % Degradation @ 1 μM [1]: <15%
EC50 [2]: 37 nM

N#Cc1ccc(C2CN([C@H]3CCCC[C@@H]3Oc3ccc4c(c3)CN(C3CCC(=O)NC3=O)C4=O)C2)c(Cl)c1 (mixture of isomers) [Compound 74, Rac-3-chloro-4-(1-((trans)-2-((2-(2,6-dioxopiperidin-3-yl)-1-oxoisoindolin-5-yl)oxy)cyclohexyl)azetidin-3-yl)benzonitrile]
IKZF2 % Degradation @ 1 μM [1]: 63%
EC50 [2]: 20 nM

N#Cc1ccc(C2CN([C@@H]3CCCC[C@@H]3Oc3ccc4c(c3)CN(C3CCC(=O)NC3=O)C4=O)C2)c(Cl)c1 (mixture of isomers) [Compound 75, Rac-3-chloro-4-(1-((cis)-2-((2-(2,6-dioxopiperidin-3-yl)-1-oxoisoindolin-5-yl)oxy)cyclohexyl)azetidin-3-yl)benzonitrile]
IKZF2 % Degradation @ 1 μM [1]: 36.8%
EC50 [2]: 12 nM

N#Cc1cccc(C2CN([C@H]3CCCC[C@H]3Oc3ccc4c(c3)CN(C3CCC(=O)NC3=O)C4=O)C2)c1 (mixture of isomers) [Compound 76, Rac-3-(1-((cis)-2-((2-(2,6-dioxopiperidin-3-yl)-1-oxoisoindolin-5-yl)oxy)cyclohexyl)azetidin-3-yl)benzonitrile]
IKZF2 % Degradation @ 1 μM [1]: 73.7%
EC50 [2]: 22 nM

N#Cc1cc(Cl)ccc1C1CN([C@H]2CCC[C@@H]2Oc2ccc3c(c2)CN(C2CCC(=O)NC2=O)C3=O)C1 (mixture of isomers) [Compound 83, Rac-5-chloro-2-(1-((trans)-2-((2-(2,6-dioxopiperidin-3-yl)-1-oxoisoindolin-5-yl)oxy)cyclopentyl)azetidin-3-yl)benzonitrile]
IKZF2 % Degradation @ 1 μM [1]: 48.8%
EC50 [2]: 36 nM

N#Cc1cc(Cl)ccc1C1CN([C@H]2CCC[C@H]2Oc2ccc3c(c2)CN(C2CCC(=O)NC2=O)C3=O)C1 (mixture of isomers) [Compound 84, Rac-5-chloro-2-(1-((cis)-2-((2-(2,6-dioxopiperidin-3-yl)-1-oxoisoindolin-5-yl)oxy)cyclopentyl)azetidin-3-yl)benzonitrile]
IKZF2 % Degradation @ 1 μM [1]: <15%
EC50 [2]: 14 nM

O=C1CCC(N2Cc3cc(O[C@@H]4CCCC[C@@H]4N4CC(O)(c5ccccc5)C4)ccc3C2=O)C(=O)N1 (mixture of isomers) [Compound 97, Rac-3-(5-(((cis)-2-(3-hydroxy-3-phenylazetidin-1-yl)cyclohexyl)oxy)-1-oxoisoindolin-2-yl)piperidine-2,6-dione]
IKZF2 % Degradation @ 1 μM [1]: <15%
EC50 [2]: 31 nM

N#Cc1cc(Cl)ccc1C1CN([C@H]2CCCC[C@@H]2Oc2ccc3c(c2)CN(C2CCC(=O)NC2=O)C3=O)C1 (mixture of isomers) [Compound 99, Rac-5-chloro-2-(1-((trans)-2-((2-(2,6-dioxopiperidin-3-yl)-1-oxoisoindolin-5-yl)oxy)cyclohexyl)azetidin-3-yl)benzonitrile]
IKZF2 % Degradation @ 1 μM [1]: 80.2%
EC50 [2]: 44 nM

N#Cc1cc(F)ccc1C1CN([C@H]2CCCC[C@@H]2Oc2ccc3c(c2)CN(C2CCC(=O)NC2=O)C3=O)C1 (mixture of isomers) [Compound 101, Rac-2-(1-((trans)-2-((2-(2,6-dioxopiperidin-3-yl)-1-oxoisoindolin-5-yl)oxy)cyclohexyl)azetidin-3-yl)-5-fluorobenzonitrile]
IKZF2 % Degradation @ 1 μM [1]: 79.2%
EC50 [2]: 33 nM

N#Cc1ccccc1C1CN([C@H]2CCCC[C@@H]2Oc2ccc3c(c2)CN(C2CCC(=O)NC2=O)C3=O)C1 (mixture of isomers) [Compound 108, Rac-2-(1-((trans)-2-((2-(2,6-dioxopiperidin-3-yl)-1-oxoisoindolin-5-yl)oxy)cyclohexyl)azetidin-3-yl)benzonitrile]
IKZF2 % Degradation @ 1 μM [1]: 71.3%
EC50 [2]: 58 nM

N#Cc1ccccc1C1CN([C@H]2CCCC[C@H]2Oc2ccc3c(c2)CN(C2CCC(=O)NC2=O)C3=O)C1 (mixture of isomers) [Compound 109, Rac-2-(1-((cis)-2-((2-(2,6-dioxopiperidin-3-yl)-1-oxoisoindolin-5-yl)oxy)cyclohexyl)azetidin-3-yl)benzonitrile]
IKZF2 % Degradation @ 1 μM [1]: <15%
EC50 [2]: 37 nM

N#Cc1ccc(C2CN([C@@H]3CCCC[C@@H]3Oc3ccc4c(c3)CN(C3CCC(=O)NC3=O)C4=O)C2)c(F)c1 (mixture of isomers) [Compound 115, Rac-4-(1-((cis)-2-((2-(2,6-dioxopiperidin-3-yl)-1-oxoisoindolin-5-yl)oxy)cyclohexyl)azetidin-3-yl)-3-fluorobenzonitrile]
IKZF2 % Degradation @ 1 μM [1]: 63.6%
EC50 [2]: 12 nM
